# What was measured:
# PTGER2 (EP2) = PTGER2 (EP2) (Homo sapiens (Human), UniProt P43116); experiment: hEP2 b-arrestin assay (PathHunter HEK 293 PTGER2 b-arrestin cells); type: cell-based
# In short: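 Readout is β-galactosidase complementation luminescence, expressed as percent of DMSO control (duplicates). PathHunter HEK293 EP2/β-arrestin 2 cells, grown 24 h, received compound for 15 min at 37 °C before a 120 min challenge with PGE2 at 5 μM final, followed by 1 h detection at room temperature.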
# PTRGER4 (EP4) = PTRGER4 (EP4) (Homo sapiens (Human), UniProt P35408); experiment: hEP4 b-arrestin assay (PathHunter HEK 293 PTGER4 b-arrestin cells); type: cell-based
# In short: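 Antagonist mode: compound is given 15 min at 37 °C, then 20 nM (final) PGE2 for 120 min, in HEK293 cells stably expressing EP4 fused to ProLink and β-arrestin 2 fused to EA. Recruitment read as β-gal luminescence after 1 h reagent at room temperature, as percent of DMSO control.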
# [1] = hEP2 b-arrestin assay (values without asterisk)
# [2] = hEP4 b-arrestin assay (values without asterisk)
# [3] = antagonistic activity on hEP2, mean where measured multiple times
# [4] = antagonistic activity on hEP4, mean where measured multiple times
# Sequence of PTRGER4 (EP4) (P35408 whole entry, looked up, the tested form may be a part): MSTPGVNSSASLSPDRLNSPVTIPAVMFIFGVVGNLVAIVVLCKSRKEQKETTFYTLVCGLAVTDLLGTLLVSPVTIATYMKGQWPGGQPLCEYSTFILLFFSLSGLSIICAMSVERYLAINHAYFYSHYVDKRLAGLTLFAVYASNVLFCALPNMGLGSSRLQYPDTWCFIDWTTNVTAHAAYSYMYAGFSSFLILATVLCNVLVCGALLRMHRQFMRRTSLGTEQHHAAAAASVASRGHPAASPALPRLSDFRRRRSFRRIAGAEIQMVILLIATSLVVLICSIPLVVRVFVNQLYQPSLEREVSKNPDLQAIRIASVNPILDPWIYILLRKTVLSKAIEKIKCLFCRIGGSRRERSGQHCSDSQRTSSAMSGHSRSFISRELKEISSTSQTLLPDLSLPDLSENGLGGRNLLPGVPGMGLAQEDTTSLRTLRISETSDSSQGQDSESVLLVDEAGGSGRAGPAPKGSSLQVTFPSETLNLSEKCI
# Sequence of PTGER2 (EP2) (P43116 whole entry): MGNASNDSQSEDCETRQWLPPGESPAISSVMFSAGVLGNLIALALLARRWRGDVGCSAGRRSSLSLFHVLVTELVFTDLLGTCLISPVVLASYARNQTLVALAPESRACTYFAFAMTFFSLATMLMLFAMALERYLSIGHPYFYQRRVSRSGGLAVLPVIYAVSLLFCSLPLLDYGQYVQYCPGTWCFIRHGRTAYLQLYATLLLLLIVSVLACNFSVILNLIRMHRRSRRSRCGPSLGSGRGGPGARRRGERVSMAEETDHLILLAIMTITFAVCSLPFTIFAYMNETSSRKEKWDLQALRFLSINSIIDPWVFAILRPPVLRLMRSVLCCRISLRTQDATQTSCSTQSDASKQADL
Structure (SMILES),IC50 (PTGER2 (EP2); [1]),IC50 (PTRGER4 (EP4); [2]),IC50 (PTGER2 (EP2); [3]),IC50 (PTRGER4 (EP4); [4])
"CCOc1cc(OCCC(=O)O)cc(-c2cc(NCCn3c(C#N)cc4c(OC)ccc(F)c43)ncn2)c1 [Example 926, 3-(3-{6-[2-(2-Cyano-7-fluoro-4-methoxy-indol-1-yl)-ethylamino]-pyrimidin-4-yl}-5-ethoxy-phenoxy)-propionic acid]",4 nM,20 nM,,
Cc1cc(F)cc2c1cc(C)n2CCNc1cc(-c2ccc3c(c2)CC(=O)N3)ncn1 [compound 61],,,98 nM,518 nM
"CCOc1cc(-c2cc(NCCn3c(C)cc4c(C)ccc(F)c43)ncn2)ccc1NCC(=O)O [Example 877, (2-Ethoxy-4-{6-[2-(7-fluoro-2,4-dimethyl-indol-1-yl)-ethylamino]-pyrimidin-4-yl}-phenylamino)-acetic acid]",5 nM,34 nM,,
"COc1cc(-c2cc(NCCn3c(C)cc4c(C)cccc43)ncn2)ccc1C(=O)O [compound 35, 4-{6-[2-(2,4-Dimethyl-indol-1-yl)-ethylamino]-pyrimidin-4-yl}-2-methoxy-benzoic acid]",,,15 nM,952 nM
"COc1ccc(F)c2c1cc(C#N)n2CCNc1cc(-c2ccnc(N3CCCC3)c2)ncn1 [Example 997, 7-Fluoro-4-methoxy-1-{2-[6-(2-pyrrolidin-1-yl-pyridin-4-yl)-pyrimidin-4-ylamino]-ethyl}-1H-indole-2-carbonitrile]",58 nM,143 nM,,
"COC(=O)c1ccc(-c2cc(NCCn3c(C#N)cc4c(OC)ccc(F)c43)ncn2)cc1F [Example 999, 4-{6-[2-(2-Cyano-7-fluoro-4-methoxy-indol-1-yl)-ethylamino]-pyrimidin-4-yl}-2-fluoro-benzoic acid methyl ester]",30 nM,23 nM,,
"COc1ccc(F)c2c1cc(C#N)n2CCNc1cc(-c2ccc(C3(OC)COC3)s2)ncn1 [Example 860, 7-Fluoro-4-methoxy-1-(2-{6-[5-(3-methoxy-oxetan-3-yl)-thiophen-2-yl]-pyrimidin-4-ylamino}-ethyl)-1H-indole-2-carbonitrile]",421 nM,121 nM,,
"COc1cc(-c2cc(NCCn3c(C)cc4c(OC)cccc43)ncn2)ccc1CO [compound 36, (2-Methoxy-4-{6-[2-(4-methoxy-2-methyl-indol-1-yl)-ethylamino]-pyrimidin-4-yl}-phenyl)-methanol]",,,5 nM,219 nM
"COc1ccc(F)c2c1cc(C)n2CCNc1cc(-c2nc(CC(C)C)c(C(=O)O)s2)ncn1 [Example 1036, 2-{6-[2-(7-Fluoro-4-methoxy-2-methyl-indol-1-yl)-ethylamino]-pyrimidin-4-yl}-4-isobutyl-thiazole-5-carboxylic acid]",24 nM,20 nM,,
"CCOc1cc(-c2cc(NCCn3c(C)c(F)c4ccccc43)ncn2)sc1C(=O)O [Example 875, 3-Ethoxy-5-{6-[2-(3-fluoro-2-methyl-indol-1-yl)-ethylamino]-pyrimidin-4-yl}-thiophene-2-carboxylic acid]",4 nM,26 nM,,
"Cc1ccc(F)c2c1cc(C)n2CCNc1cc(-c2ccc3nccnc3c2)ncn1 [compound 55, [2-(7-Fluoro-2,4-dimethyl-indol-1-yl)-ethyl]-(6-quinoxalin-6-yl-pyrimidin-4-yl)-amine]",,,63 nM,570 nM
"COc1n[nH]c2cc(-c3cc(NCCn4c(C#N)cc5c(OC)ccc(F)c54)ncn3)ccc12 [Example 918, 7-Fluoro-4-methoxy-1-{2-[6-(3-methoxy-1H-indazol-6-yl)-pyrimidin-4-ylamino]-ethyl}-1H-indole-2-carbonitrile]",26 nM,73 nM,,
"CCN(C=O)c1csc(-c2cc(NCCn3c(C)cc4c(OC)ccc(F)c43)ncn2)c1 [Example 1071, N-Ethyl-N-(5-{6-[2-(7-fluoro-4-methoxy-2-methyl-indol-1-yl)-ethylamino]-pyrimidin-4-yl}-thiophen-3-yl)-formamide]",23 nM,40 nM,,
"COc1ccc(F)c2c1cc(C#N)n2CCNc1cc(-c2ccc(O)c(C(F)(F)F)c2)ncn1 [Example 1001, 7-Fluoro-1-{2-[6-(4-hydroxy-3-trifluoromethyl-phenyl)-pyrimidin-4-ylamino]-ethyl}-4-methoxy-1H-indole-2-carbonitrile]",6 nM,7 nM,,
"COc1ccc(F)c2c1cc(C#N)n2CCNc1cc(-c2cnc3c(ccn3C)c2)ncn1 [Example 980, 7-Fluoro-4-methoxy-1-{2-[6-(1-methyl-1H-pyrrolo[2,3-b]pyridin-5-yl)-pyrimidin-4-ylamino]-ethyl}-1H-indole-2-carbonitrile]",21 nM,12 nM,,
"CCCc1cc(-c2cc(NCCn3c(C#N)cc4c(OC)ccc(F)c43)ncn2)cc(F)c1C(=O)O [Example 939, 4-{6-[2-(2-Cyano-7-fluoro-4-methoxy-indol-1-yl)-ethylamino]-pyrimidin-4-yl}-2-fluoro-6-propyl-benzoic acid]",15 nM,17 nM,,
"COc1ccc(F)c2c1cc(C#N)n2CCNc1cc(-c2ccc(O)c(Cl)c2)ncn1 [Example 867, 1-{2-[6-(3-Chloro-4-hydroxy-phenyl)-pyrimidin-4-ylamino]-ethyl}-7-fluoro-4-methoxy-1H-indole-2-carbonitrile]",8 nM,6 nM,,
"COc1ccc(F)c2c1cc(C#N)n2CCNc1cc(-c2ccc(C(F)(F)C(=O)O)cc2)ncn1 [Example 887, (4-{6-[2-(2-Cyano-7-fluoro-4-methoxy-indol-1-yl)-ethylamino]-pyrimidin-4-yl}-phenyl)-difluoro-acetic acid]",89 nM,177 nM,,
"CCOc1cc(-c2cc(NCCn3c(C#N)cc4c(OC)ccc(F)c43)ncn2)sc1C(=O)NS(C)(=O)=O [Example 809, N-(5-{6-[2-(2-Cyano-7-fluoro-4-methoxy-indol-1-yl)-ethylamino]-pyrimidin-4-yl}-3-ethoxy-thiophene-2-carbonyl)-methanesulfonamide]",3 nM,6 nM,,
"COc1cccc2c1cc(C)n2CCNc1cc(-c2ccc(CO)c(Cl)c2)ncn1 [compound 16, (2-Chloro-4-{6-[2-(4-methoxy-2-methyl-indol-1-yl)-ethylamino]-pyrimidin-4-yl}-phenyl)-methanol]",,,9 nM,202 nM
"CCOc1cc(-c2cc(NCCn3c(C#N)cc4c(C)c(F)c(F)cc43)ncn2)ccc1NCC(=O)O [Example 895, (4-{6-[2-(2-Cyano-5,6-difluoro-4-methyl-indol-1-yl)-ethylamino]-pyrimidin-4-yl}-2-ethoxy-phenylamino)-acetic acid]",20 nM,66 nM,,
"CCOc1cc(-c2cc(NCCn3c(C#N)cc4c(OC)ccc(F)c43)ncn2)ccc1-c1nnn[nH]1 [Example 803, 1-(2-{6-[3-Ethoxy-4-(1H-tetrazol-5-yl)-phenyl]-pyrimidin-4-ylamino}-ethyl)-7-fluoro-4-methoxy-1H-indole-2-carbonitrile]",10 nM,4 nM,,

# Next, values leading:
IC50 (PTGER2 (EP2); [1]),IC50 (PTRGER4 (EP4); [2]),IC50 (PTGER2 (EP2); [3]),IC50 (PTRGER4 (EP4); [4]),Structure (SMILES)
,,62 nM,570 nM,"Cc1ccc(C)c2c1cc(C)n2CCNc1cc(-c2ccc(C(=O)O)c(CC(C)C)c2)ncn1 [compound 328, 2-Isobutyl-4-{6-[2-(2,4,7-trimethyl-indol-1-yl)-ethylamino]-pyrimidin-4-yl}-benzoic acid]"
,,121 nM,885 nM,COc1cccc2c1cc(C)n2CCNc1cc(-c2ccc3c(c2)CN(C)C3=O)ncn1 [compound 87]
,,2 nM,12 nM,"COc1ccc(F)c2c1cc(C)n2CCNc1cc(-c2ccc(-c3cc(N)no3)cc2)ncn1 [compound 304, {6-[4-(3-Amino-isoxazol-5-yl)-phenyl]-pyrimidin-4-yl}-[2-(7-fluoro-4-methoxy-2-methyl-indol-1-yl)-ethyl]-amine]"
,,86 nM,758 nM,Cc1ccc(F)c2c1cc(C)n2CCNc1cc(-c2ccc(-c3ncc[nH]3)cc2)ncn1 [compound 71]
,,396 nM,993 nM,COc1ccc(F)c2c1cc(C)n2CCNc1cc(-c2ccc(S(C)(=O)=O)c(F)c2)ncn1 [compound 161]
,,34 nM,934 nM,Cc1cc(F)cc2c1cc(C)n2CCNc1cc(-c2ccc(C(=O)O)c(Cl)c2)ncn1 [compound 105]
,,2 nM,6 nM,CCOc1cc(-c2cc(NCCn3c(C)cc4c(OC)cc(F)cc43)ncn2)sc1C(=O)O [compound 257]
,,96 nM,288 nM,Cc1cc(-c2cc(NCCn3c(C)cc4c(C)ccc(F)c43)ncn2)ccc1S(N)(=O)=O [compound 135]
,,183 nM,475 nM,Cc1cc(F)c(F)c2c1cc(C)n2CCNc1cc(-c2ccc3c(c2)CC(=O)N3)ncn1 [compound 93]
,,68 nM,345 nM,CCN1Cc2cc(-c3cc(NCCn4c(C)cc5c(OC)ccc(F)c54)ncn3)ccc2C1=O [compound 320]
,,25 nM,381 nM,CSc1cc(-c2cc(NCCn3c(C)cc4c(C)ccc(Cl)c43)ncn2)ccc1C(=O)O [compound 217]
,,33 nM,322 nM,"COc1ccc(F)c2c1cc(C)n2CCNc1cc(-c2ccc(-c3noc(C)n3)cc2)ncn1 [compound 303, [2-(7-Fluoro-4-methoxy-2-methyl-indol-1-yl)-ethyl]-{6-[4-(5-methyl-[1,2,4]oxadiazol-3-yl)-phenyl]-pyrimidin-4-yl}-amine]"
,,7 nM,461 nM,"COc1ccc(F)c2c1cc(C)n2CCNc1cc(-c2ccc3c(c2)CNC3=O)ncn1 [compound 90, 5-{6-[2-(7-Fluoro-4-methoxy-2-methyl-indol-1-yl)-ethylamino]-pyrimidin-4-yl}-2,3-dihydro-isoindol-1-one]"
,,102 nM,667 nM,CSc1cc(-c2cc(NCCn3c(C)cc4c(C)c(F)cc(Cl)c43)ncn2)cc(F)c1C(=O)O [compound 330]
